Measured values as given in PubChem BioAssay AID720602 (Broad Institute, 2013).

Tested on: LOX IMVI viability, ATP luminescence, 8/24/48 h
Experiment: cytotoxicity in LOX IMVI melanoma cells – cell-based, CellTiter-Glo ATP luminescence, 8/24/48 h, dry powder, HRAS target identification, dose response (AID 720602)

| Compound | AC50 (measured here: AC50 at 8 h) [µM] | AC50 (measured here: AC50 at 24 h) [µM] | AC50 (measured here: AC50 at 48 h) [µM] |
| --- | --- | --- | --- |
| COC(=O)c1ccc([C@@H]2c3[nH]c4ccccc4c3C[C@@H](C(=O)OC)N2C(=O)CCl)cc1 | 0.0157 | 0.0101 | 0.187 |
| COc1ccc(N(C(=O)CCl)C(C(=O)NCCc2ccccc2)c2cccs2)cc1Cl (stereo not given) | 0.021 | 0.0259 | 0.122 |
| Cc1onc(C(=O)N2CCN(C(c3ccc(Cl)cc3)c3ccc(Cl)cc3)CC2)c1[N+](=O)[O-] | 0.06 | 0.0366 | 0.499 |
| C#CCCCC(=O)NCCOCCOCCOc1ccc(N(C(=O)CCl)C(C(=O)NCCc2ccccc2)c2cccs2)cc1Cl (stereo not given) | 0.193 | 0.146 | 2.64 |
| CC(C)(C)OC(=O)NCCOCCOCCOc1ccc(N(C(=O)CCl)C(C(=O)NCCc2ccccc2)c2cccs2)cc1Cl (stereo not given) | 0.0435 | 0.0342 | 0.39 |
